From patent US20240293405A1, “(1H-PYRROLO[2,3-B]PYRIDIN-1-YL)PYRIMIDIN-2-YL-AMINO-PHENYL-ACRYLAMIDE INHIBITORS OF EGFR FOR USE IN THE TREATMENT OF BRAIN TUMORS” (Dana-Farber Cancer Institute, Inc., priority 2021, published 2024)
“And” between values parts separate entries of the source, which are not always exact repeats. Identical values can stand only once. Like-named read-outs stand apart in the source and are kept apart here. Each block holds one compound with its values, some of them ahead of it.

Columns and labels:
[1] = Cardiovascular function (telemetry); format: in vivo, dog; settings: plasma; dog, 100 mg/kg Compound 1 PO; M38 as metabolite; read-out: estimated single-dose Cmax
Protocol: This arrythmia was not associated with maximum plasma concentration (Cmax) or Tmax of either parent or metabolite. No definitive link to the test article could be identified. Given the unexplained reversible arrythmia in this high-dose (100 mg/kg) telemetry dog, routine electrocardiogram (ECG) monitoring in Phase 1 is recommended.

[2] = Pharmacokinetics in rats (IV, PO); format: in vivo, rat; settings: rat, plasma, Compound 2 as metabolite
Source text: Exposure was generally dose proportional.

[3] = tested on: 468 human kinases and disease relevant mutant variants; assay: Kinase selectivity binding panel (468 kinases); settings: 468 kinase panel, 1 μM free base
Protocol: Compound 1 and Compound 2 (major metabolite) were evaluated in a panel of 468 human kinases and disease relevant mutant variants. Compound 1 and Compound 2 bound to few non-mutant kinases at <1% of control. […] While there is some variability between Compound 1 and Compound 2, it is clear that both compounds are very effective at binding to a large panel of mutant kinases. […] Binding constant to wild type EGFR was 4.9 nM.

[4] = Brain and plasma exposure after 5 hour intravenous infusion; format: in vivo, Sprague Dawley rats; settings: for Kp at 5 h: iv, read-out: Brain/Plasma (ratios)
Protocol: A single IV infustion for 5 hours was administered to each animal, which were then twice observed clinically (30 minutes to 1 hour post-posing and at the end of the study (TTerminal). Blood samples were collected at 5 time points from each animal over the 5 hour infusion period (5 minutes, 1 hour, 2, hours, 3 hours and TTerminal) and processed to plasma. Brains were collected at Tterminal (blotted, weighed, and snap frozen) and brain exposure was compared. […]

[5] = Oral dog 4-week toxicity study with toxicokinetics; format: in vivo, beagle dogs; settings: beagle, in vivo, dog Day 28 mean, Compound 2 as metabolite; for AUC(0-t): read-out: AUC0-24
Protocol: Compound 1 (0, 10, 30, and 100 mg/kg/day) was given orally, once daily by gavage, to male and female beagle dogs (4/sex) for up to 28 days. […] The cause of death in this high-dose male was attributed to myocardial degeneration. This lesion was not observed in any other dog on study. Increases in alkaline phosphatase, globulin, cholesterol, triglycerides and fibrinogen and decreased reticulocyte counts noted in the high-dose group at mid-study returned towards baseline by the end of the study following 11/12 days of recovery. Testicular changes at all doses (seminiferous epithelial vacuolation at 10 and 30 mg/kg and degeneration/atrophy at 100 mg/kg) were not reversible in this short-term study; the reversibility period was not long enough to assess reversibility of testicular changes.
The increases were generally dose-proportional or greater-than dose-proportional on Day 1 and Day 28. Gender difference was not observed. No significant accumulation of Compound 1 or Compound 2 was observed.
Thirty-two beagle dogs (conventional, naive) were divided into four groups. Each group consists of four male and four female. Group 1 beagle dogs were administered vehicle and groups 2-4 beagle dogs were administered Compound 1 at 10 mg/kg, 30 mg/kg, and 100 mg/kg, respectively, by oral gavage once daily for 28 consecutive days (Table 15). […] Cmax (ng/mL) and AUClast (hr*ng/mL) of Compound 1 on day 1 were obtained for groups 2-4 (Table 15).

[6] = tested on: P-gp, Bcrp; settings: previously published report; cited from earlier work
[7] = tested on: Glioblastoma; settings: previously published report, cited from earlier work
[8] = tested on: BT179 cells; assay: Cell viability, patient-derived GBM line BT179; settings: Homo sapiens, 72 h
Protocol: (§1) Primary human glioblastoma lines BT112, BT179 and BT333 were maintained in NeuroCult proliferation medium (human) (StemCell Technologies) with 20 ng/ml EGF, 10 ng/ml FGF and 0.0002% Heparin.
(§2) Cells were seeded in 96-well plates at a density of 1,000 cells per well and treated with two-fold serial dilutions of compounds with a starting concentration of 20 μM. Cell viability was assessed after three days of treatment by CellTiter-Glo (Promega). Curve fitting analysis and IC50 value determination were performed using GraphPad Prism 8.

[9] = tested on: BT112 cells; assay: Cell viability, patient-derived GBM line BT112; settings: Homo sapiens, 72 h
Protocol: as §1, §2

[10] = tested on: BT333 cells; assay: Cell viability, patient-derived GBM line BT333; settings: Homo sapiens, 72 h
Protocol: as §1, §2

[11] = Brain and plasma exposure after single oral dose; format: in vivo, Sprague Dawley rats; settings: Sprague Dawley, rat, 50 mg/kg, gefitinib 50 mg/kg PO, 7 hr; for concentration at 7 h: oral
[12] = Brain and plasma exposure after single oral dose; format: in vivo, Sprague Dawley rats; settings: gefitinib 50 mg/kg PO
Source text: Genfitinib concentrations were quantitated by LC-MS/MS from brain and plasma from Group 1 animals.

[13] = 3 mg/kg IV infusion over 5 h, 5 h, individual animal, Compound 2 as metabolite in Compound 1-dosed rats
[14] = male, Sprague Dawley, rat, brain, intravenous, 3 mg/kg, 3 mg/kg IV infusion over 5 h, 5 h, individual animal, Compound 2 as metabolite in Compound 1-dosed rats, read-out: Brain Tissue Concentration
[15] = male, Sprague Dawley, rat, brain, intravenous, 3 mg/kg, 3 mg/kg IV infusion over 5 h, 5 h, mean n=6, Compound 2 as metabolite, read-out: Brain Tissue Concentration
[16] = male, Sprague Dawley, rat, plasma, intravenous, 3 mg/kg, 3 mg/kg IV infusion over 5 h, 1 h, individual animal, Compound 2 as metabolite in Compound 1-dosed rats
[17] = male, Sprague Dawley, rat, plasma, intravenous, 3 mg/kg, 3 mg/kg IV infusion over 5 h, 2 h, individual animal, Compound 2 as metabolite in Compound 1-dosed rats
[18] = male, Sprague Dawley, rat, plasma, intravenous, 3 mg/kg, 3 mg/kg IV infusion over 5 h, 5 h, individual animal, Compound 2 as metabolite in Compound 1-dosed rats, read-out: Plasma Concentration
[19] = female, 10 mg/kg Compound 1 PO, F
[20] = female, 30 mg/kg Compound 1 PO, F
[21] = male, 10 mg/kg Compound 1 PO, M
[22] = male, 30 mg/kg Compound 1 PO, M

SMILES: C=CC(=O)Nc1cc(Nc2nccc(-n3ccc4cccnc43)n2)c(OC)cc1N(C)CCNC [Compound 2, N-(5-((4-(1H-pyrrolo[2,3-b]pyridin-1-yl)pyrimidin-2-yl)amino)-4-methoxy-2-(methyl(2-(methylamino)ethyl)amino)phenyl)acrylamide]
Cmax [1]: ~367 ng/mL and ~750 nM
half-life [2]: ~9 h
Tmax ([2]; po): ~7 h
targeted non-mutant kinases (bound at <1% of control) [3]: ERBB2, JAK3 (JH1-domain-catalytic), MKNK2, MTOR, OSR1 and TNK1
Plasma Concentration ([4]; 3 mg/kg IV infusion over 5 h, 0.083 h, individual animal, Compound 2 as metabolite in Compound 1-dosed rats): BLQ
Plasma Concentration ([4]; 3 mg/kg IV infusion over 5 h, 0.083 h, mean n=6, Compound 2 as metabolite): BLQ
Plasma Concentration ([4]; 3 mg/kg IV infusion over 5 h, 1 h, individual animal, Compound 2 as metabolite in Compound 1-dosed rats): 3.47 ng/mL (2×) and 3.14 ng/mL and 3.28 ng/mL and 2.71 ng/mL
Plasma Concentration ([4]; 3 mg/kg IV infusion over 5 h, 2 h, individual animal, Compound 2 as metabolite in Compound 1-dosed rats): 7.75 ng/mL and 6.99 ng/mL and 8.41 ng/mL and 7.39 ng/mL and 6.20 ng/mL
Plasma Concentration ([4]; 3 mg/kg IV infusion over 5 h, 3 h, individual animal, Compound 2 as metabolite in Compound 1-dosed rats): 12.9 ng/mL and 10.6 ng/mL and 12.7 ng/mL and 12.5 ng/mL and 12.3 ng/mL
Brain Tissue Concentration [4, 13]: 23.6 ng/g and 20.9 ng/g and 21.0 ng/g and 21.6 ng/g and 19.8 ng/g
Brain/Plasma (ratios) [4, 13]: 1.30 and 1.07 and 1.11 and 1.06
Plasma Concentration [4, 13]: 18.1 ng/mL and 19.6 ng/mL and 18.9 ng/mL and 20.4 ng/mL and 16.8 ng/mL
brain exposure relative to plasma ([4]; Compound 2 as metabolite, rat): essentially equal to plasma
concentration at 5 h [4, 14]: 24.5 ng/g
concentration at 5 h [4, 15]: 21.9 ng/g
Kp at 5 h ([4]; male, Sprague Dawley, rat, brain, 3 mg/kg, 3 mg/kg IV infusion over 5 h, 5 h, individual animal, Compound 2 as metabolite in Compound 1-dosed rats): 1.35
Kp at 5 h ([4]; male, Sprague Dawley, rat, brain, 3 mg/kg, 3 mg/kg IV infusion over 5 h, 5 h, mean n=6, Compound 2 as metabolite): 1.18
concentration at 1 h [4, 16]: 3.24 ng/mL
concentration at 1 h ([4]; male, Sprague Dawley, rat, plasma, intravenous, 3 mg/kg, 3 mg/kg IV infusion over 5 h, 1 h, mean n=6, Compound 2 as metabolite): 3.22 ng/mL
concentration at 2 h [4, 17]: 5.62 ng/mL
concentration at 2 h ([4]; male, Sprague Dawley, rat, plasma, intravenous, 3 mg/kg, 3 mg/kg IV infusion over 5 h, 2 h, mean n=6, Compound 2 as metabolite): 7.06 ng/mL
concentration at 3 h ([4]; male, Sprague Dawley, rat, plasma, intravenous, 3 mg/kg, 3 mg/kg IV infusion over 5 h, 3 h, individual animal, Compound 2 as metabolite in Compound 1-dosed rats): 12.9 ng/mL
concentration at 3 h ([4]; male, Sprague Dawley, rat, plasma, intravenous, 3 mg/kg, 3 mg/kg IV infusion over 5 h, 3 h, mean n=6, Compound 2 as metabolite): 12.3 ng/mL
concentration at 5 h [4, 18]: 18.2 ng/mL
concentration at 5 h ([4]; male, Sprague Dawley, rat, plasma, intravenous, 3 mg/kg, 3 mg/kg IV infusion over 5 h, 5 h, mean n=6, Compound 2 as metabolite, read-out: Plasma Concentration): 18.7 ng/mL
Cmax [5, 19]: 242 ng/mL
AUC(0-t) [5, 19]: 3360 ng·h/mL
Cmax [5, 20]: 161 ng/mL
AUC(0-t) [5, 20]: 1790 ng·h/mL
Cmax [5, 21]: 143 ng/mL
AUC(0-t) [5, 21]: 1420 ng·h/mL
Cmax [5, 22]: 263 ng/mL
AUC(0-t) [5, 22]: 2980 ng·h/mL

SMILES: C#Cc1cccc(Nc2ncnc3cc(OCCOC)c(OCCOC)cc23)c1 [Erlotinib]
Efflux Liability [6]: P-gp, Bcrp
Glioblastoma (treatment outcome) [7]: Failed
Glioblastoma (treatment outcome) ([7]; listed as erlotinib): failed
IC50 [8]: 11.7 µM
IC50 [9]: 18.5 µM
IC50 [10]: 52.3 µM

IC50 [8]: 2.32 µM
IC50 [9]: 5.22 µM
IC50 [10]: 7.91 µM
SMILES: CS(=O)(=O)CCNCc1ccc(-c2ccc3ncnc(Nc4ccc(OCc5cccc(F)c5)c(Cl)c4)c3c2)o1 [Lapatinib]

concentration at 7 h ([11]; brain, individual animal, read-out: Brain Tissue Concentration): 561 ng/g
concentration at 7 h ([11]; brain, mean n=3, read-out: Brain Tissue Concentration): 596 ng/g
Kp at 7 h ([11]; brain, po, mean n=3, read-out: Brain/Plasma (ratios)): 0.22
concentration at 7 h ([11]; plasma, mean n=3, read-out: Plasma Concentration): 2660 ng/mL
concentration at 3 h ([12]; Sprague Dawley, rat, plasma, oral, 50 mg/kg, 3 hr, mean n=3): 1950 ng/mL
Plasma Concentration ([12]; 3 hr, individual animal): 2660 ng/mL and 1940 ng/mL and 1260 ng/mL
Brain Tissue Concentration ([12]; 7 hr, individual animal): 666 ng/g and 562 ng/g and 561 ng/g
Plasma Concentration ([12]; 7 hr, individual animal): 2240 ng/mL and 4700 ng/mL and 1030 ng/mL
concentration at 5 h [4, 14]: 155 ng/g
concentration at 5 h [4, 15]: 154 ng/g
concentration at 0.083 h ([4]; male, Sprague Dawley, rat, plasma, intravenous, 3 mg/kg, 3 mg/kg IV infusion over 5 h, 0.083 h, individual animal, Compound 2 as metabolite in Compound 1-dosed rats): 55.6 ng/mL
concentration at 1 h [4, 16]: 115 ng/mL
concentration at 2 h [4, 17]: 161 ng/mL
concentration at 5 h [4, 18]: 286 ng/mL
SMILES: COc1cc2ncnc(Nc3ccc(F)c(Cl)c3)c2cc1OCCCN1CCOCC1 [Gefitinib, reference compound]
Efflux Liability [6]: P-gp, Bcrp
Glioblastoma (treatment outcome) [7]: Failed
Glioblastoma (treatment outcome) ([7]; listed as gefitinib): failed
Brain Tissue Concentration [4, 13]: 153 ng/g and 129 ng/g and 151 ng/g and 149 ng/g and 189 ng/g and 155 ng/g

SMILES: COc1cc2ncnc(Nc3ccc(F)c(Cl)c3)c2cc1NC(=O)/C=C/CN1CCCCC1 [Vizimpro]
Glioblastoma (treatment outcome) [7]: Failed
Glioblastoma (treatment outcome) ([7]; listed as visimpro): failed

SMILES: CN(C)C/C=C/C(=O)Nc1cc2c(Nc3ccc(F)c(Cl)c3)ncnc2cc1O[C@H]1CCOC1 [Afatinib]
Efflux Liability [6]: P-gp, Bcrp
